Experimental data from ChEMBL document CHEMBL1139909, “Safrole oxide is a useful tool for investigating the effect of apoptosis in vascular endothelial cells on neural stem cell survival and differentiation in vitro” (2007).
Active and inactive are the calls of the source. The calls are words filed in the database; no cut-off is given here.

Tests used:
[1] = test system: Neural stem cell; test: Induction of apoptosis in neural stem cells assessed as cell viability at 10 to 100 ug/mL by MTT assay; assay type: functional, cell-based; details: Mus musculus
[2] = test system: Endothelial cell; test: Induction of apoptosis in neural stem cells co-cultured with vascular endothelial cells assessed as neurites degeneration at 70 ug/mL after 10 hrs; assay type: functional, cell-based; details: Mus musculus
[3] = test system: Endothelial cell; test: Induction of necrosis in neural stem cells co-cultured with vascular endothelial cells assessed as LDH release at 70 ug/mL after 10 hrs relative to control; assay type: functional, cell-based; details: Mus musculus
[4] = test system: Endothelial cell; test: Induction of apoptosis in neural stem cells co-cultured with vascular endothelial cells assessed as inhibition of cell differentiation at 70 ug/mL after 10 hrs; assay type: functional, cell-based; details: Mus musculus
[5] = test system: Endothelial cell; test: Induction of apoptosis in neural stem cells co-cultured with vascular endothelial cells assessed as nuclear condensation at 70 ug/mL after 10 hrs; assay type: functional, cell-based; details: Mus musculus
[6] = test system: Endothelial cell; test: Induction of apoptosis in neural stem cells co-cultured with vascular endothelial cells assessed as DNA fragmentation at 70 ug/mL after 10 hrs; assay type: functional, cell-based; details: Mus musculus
[7] = Increase in apoptosis rate in neural stem cells co-cultured with vascular endothelial cells assessed as cell survival at 70 ug/mL after 10 hrs; assay type: functional; details: Mus musculus, read-out: Activity

For `c1cc2c(cc1CC1CO1)OCO2` (configuration not stated), the Activity [1] was “inactive”, the Activity [2] was “Active” and the Activity [3] was “inactive”. For the same molecule, the Activity [4] was “Active”, the Activity [5] was “Active” and the Activity [6] was “Active”. For the same molecule, the viability at 70 µg/mL [7] was 92%.
